# Results taken from patent US20260285850A1, “SUBSTITUTED OXAZOLIDINONES AND IMIDAZOLINONES AS HERBICIDES” (FMC CORPORATION, priority 2023, published 2026).
# Legend:
# Format in all cases: in vivo
# [1] = tested on: wheat (Triticum aestivum); assay: Test A preemergence soil spray, visual injury rating 0-100; conditions: 10 days
# Summary of the method: (§1)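 Grow plants in loam soil blended with sand. Apply formulated compound (non-phytotoxic solvent, surfactant) as a directed soil spray before emergence, or to plants at the one- to two-leaf stage after emergence. Hold in greenhouse 10 days, then rate injury visually versus untreated controls on a 0-100 scale.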
# [2] = tested on: green foxtail (Setaria viridis); assay: as above; conditions: 10 days
# Summary of the method: as §1
# soybean (Glycine max) [3] = assay: as above; conditions: 10 days
# Summary of the method: as §1
# [4] = tested on: ragweed (common ragweed, Ambrosia artemisiifolia); assay: as above; conditions: 10 days
# Summary of the method: as §1
# [5] = tested on: blackgrass (Alopecurus myosuroides); assay: as above; conditions: 10 days
# Summary of the method: as §1
# [6] = tested on: palmer (palmer amaranth, palmer pigweed, Amaranthus palmeri); assay: as above; conditions: 10 days
# Summary of the method: as §1
# kochia (Bassia scoparia) [7] = assay: as above; conditions: 10 days
# Summary of the method: as §1
# [8] = tested on: barnyardgrass (Echinochloa crus-galli); assay: as above; conditions: 10 days
# Summary of the method: as §1
# corn (Zea mays) [9] = assay: as above; conditions: 10 days
# Summary of the method: as §1
# [10] = tested on: oat, wild (wild oat, Avena fatua); assay: as above; conditions: 10 days
# Summary of the method: as §1
# [11] = tested on: ryegrass, Italian (italian ryegrass, Lolium multiflorum); assay: as above; conditions: 10 days
# Summary of the method: as §1
# [12] = tested on: horseweed (Erigeron canadensis); assay: Test A postemergence application, visual injury rating 0-100
# Summary of the method: as §1
# [13] = tested on: wheat (Triticum aestivum); assay: as above
# Summary of the method: as §1
# [14] = tested on: green foxtail (Setaria viridis); assay: as above
# Summary of the method: as §1
# soybean (Glycine max) [15] = assay: as above
# Summary of the method: as §1
# [16] = tested on: ragweed (common ragweed, Ambrosia artemisiifolia); assay: as above
# Summary of the method: as §1
# [17] = tested on: blackgrass (Alopecurus myosuroides); assay: as above
# Summary of the method: as §1
# [18] = tested on: palmer (palmer amaranth, palmer pigweed, Amaranthus palmeri); assay: as above
# Summary of the method: as §1
# kochia (Bassia scoparia) [19] = assay: as above
# Summary of the method: as §1
# [20] = tested on: barnyardgrass (Echinochloa crus-galli); assay: as above
# Summary of the method: as §1
# corn (Zea mays) [21] = assay: as above
# Summary of the method: as §1
# [22] = tested on: galium (catchweed bedstraw, Galium aparine); assay: as above
# Summary of the method: as §1
# [23] = tested on: oat, wild (wild oat, Avena fatua); assay: as above
# Summary of the method: as §1
# [24] = tested on: ryegrass, Italian (italian ryegrass, Lolium multiflorum); assay: as above
# Summary of the method: as §1
# [25] = tested on: barnyardgrass (Echinochloa crusgalli); assay: Test B flooded paddy test, visual plant response rating 0-100; conditions: 250 g ai/ha, Flood, applied to paddy water, evaluated after 13 days
# Summary of the method: (§2)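 2-leaf plants; flood 3 cm over soil; compound dosed into paddy water; depth kept constant; greenhouse 13 d; visual scoring vs controls. Dash = no result.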
# [26] = tested on: ducksalad (Heteranthera limosa); assay: as above; conditions: 250 g ai/ha, Flood, applied to paddy water, evaluated after 13 days
# Summary of the method: as §2
# [27] = tested on: sedge, umbrella (small-flower umbrella sedge, Cyperus difformis); assay: as above; conditions: 250 g ai/ha, Flood, applied to paddy water, evaluated after 13 days
# Summary of the method: as §2
# rice (Oryza sativa) = assay: as above; conditions: 250 g ai/ha, Flood, applied to paddy water, evaluated after 13 days
# Summary of the method: as §2
# [28] = 62 g ai/ha, 0 = no effect, 100 = complete control
# [29] = 62 g ai/ha, postemergence, 10 days, 0 = no effect, 100 = complete control
# [30] = Postemergence, 16 g ai/ha, greenhouse 10 days, 0 no effect, 100 complete control
smiles,measurement,setting,value
CC(C)COC(=O)C1=CCC(NC(=O)C2(C)CN(c3cc(F)cc(Cl)c3)C(=O)O2)C1 (stereo not shown) [Compound 143],Wheat plant response rating,"[1]; 16 g ai/ha, 0 to 100 scale",0
same,Wheat plant response rating (0-100),[1]; [28],0
same,"Foxtail, Green plant response rating","[2]; 16 g ai/ha, 0 to 100 scale",0
same,"Foxtail, Green plant response rating (0-100)",[2]; [28],0
same,Soybean plant response rating,"soybean (Glycine max) [3]; 16 g ai/ha, 0 to 100 scale",0
same,Soybean plant response rating (0-100),soybean (Glycine max) [3]; [28],0
same,Ragweed plant response rating,"[4]; 16 g ai/ha, 0 to 100 scale",0
same,Ragweed plant response rating (0-100),[4]; [28],0
same,Blackgrass plant response rating,"[5]; 16 g ai/ha, 0 to 100 scale",0
same,Blackgrass plant response rating (0-100),[5]; [28],0
same,"Pigweed, Palmer plant response rating","[6]; 16 g ai/ha, 0 to 100 scale",0
same,"Pigweed, Palmer plant response rating (0-100)",[6]; [28],0
same,Kochia plant response rating,"kochia (Bassia scoparia) [7]; 16 g ai/ha, 0 to 100 scale",0
same,Kochia plant response rating (0-100),kochia (Bassia scoparia) [7]; [28],0
same,Barnyardgrass plant response rating,"[8]; 16 g ai/ha, 0 to 100 scale",0
same,Barnyardgrass plant response rating (0-100),[8]; [28],0
same,Corn plant response rating,"corn (Zea mays) [9]; 16 g ai/ha, 0 to 100 scale",0
same,Corn plant response rating (0-100),corn (Zea mays) [9]; [28],0
same,"Oat, Wild plant response rating","[10]; 16 g ai/ha, 0 to 100 scale",0
same,"Oat, Wild plant response rating (0-100)",[10]; [28],0
same,"Ryegrass, Italian plant response rating","[11]; 16 g ai/ha, 0 to 100 scale",0
same,"Ryegrass, Italian plant response rating (0-100)",[11]; [28],0
same,Horseweed plant response rating (0-100),[12]; [29],0
same,Horseweed plant response rating (0 to 100 scale),[12]; [30],0
same,Wheat plant response rating (0-100),[13]; [29],0
same,Wheat plant response rating (0 to 100 scale),[13]; [30],0
same,"Foxtail, Green plant response rating (0-100)",[14]; [29],0
same,"Foxtail, Green plant response rating (0 to 100 scale)",[14]; [30],0
same,Soybean plant response rating (0-100),soybean (Glycine max) [15]; [29],0
same,Soybean plant response rating (0 to 100 scale),soybean (Glycine max) [15]; [30],0
same,Ragweed plant response rating (0-100),[16]; [29],0
same,Ragweed plant response rating (0 to 100 scale),[16]; [30],0
same,Blackgrass plant response rating (0-100),[17]; [29],0
same,Blackgrass plant response rating (0 to 100 scale),[17]; [30],0
same,"Pigweed, Palmer plant response rating (0-100)",[18]; [29],0
same,"Pigweed, Palmer plant response rating (0 to 100 scale)",[18]; [30],0
same,Kochia plant response rating (0-100),kochia (Bassia scoparia) [19]; [29],0
same,Kochia plant response rating (0 to 100 scale),kochia (Bassia scoparia) [19]; [30],0
same,Barnyardgrass plant response rating (0-100),[20]; [29],0
same,Barnyardgrass plant response rating (0 to 100 scale),[20]; [30],0
same,Corn plant response rating (0-100),corn (Zea mays) [21]; [29],0
same,Corn plant response rating (0 to 100 scale),corn (Zea mays) [21]; [30],0
same,Galium plant response rating (0-100),[22]; [29],0
same,Galium plant response rating (0 to 100 scale),[22]; [30],0
same,"Oat, Wild plant response rating (0-100)",[23]; [29],0
same,"Oat, Wild plant response rating (0 to 100 scale)",[23]; [30],0
same,"Ryegrass, Italian plant response rating (0-100)",[24]; [29],0
same,"Ryegrass, Italian plant response rating (0 to 100 scale)",[24]; [30],0
same,"Plant response rating, Barnyardgrass (0 to 100 scale, 0 is no effect and 100 is complete control)",[25],40
same,"Plant response rating, Ducksalad (0 to 100 scale, 0 is no effect and 100 is complete control)",[26],60
same,"Plant response rating, Sedge, Umbrella (0 to 100 scale, 0 is no effect and 100 is complete control)",[27],45
same,"Plant response rating, Rice (0 to 100 scale, 0 is no effect and 100 is complete control)",rice (Oryza sativa),10
